Structures can show the parent of a compound that is named as a salt. Marks after values point to notes of the source that are not given here.
Assays:
[1] = system: normal adult human dermal fibroblasts; assay: Neosynthesis of hyaluronic acid in normal adult human dermal fibroblasts cultured in monolayers (ELISA on culture media); assay type: cell-based; conditions: incubation 24 hours
Protocol: (§1) Confluent monolayers of normal human dermal fibroblasts were obtained by culturing cells obtained from abdominoplasty performed on a person. The fibroblasts were isolated by enzymatic digestion using Dispase and collagenase and were then cultured in DMEM (Dulbecco's Modified Eagle's Medium) and Ham's F12 medium in (1:1) ratio containing 10% of fetal calf serum, antibiotics and amphotericin B.
The reference activator used is transforming growth factor β (TGF-β) at a concentration of 10 ng/ml.
(§2) The fibroblasts were incubated for 24 hours at 37° C., under a humid atmosphere and 5% CO2, in the absence (culture medium only) or in the presence of the reference product, or of increasing concentrations of test products (10, 100 and 1000 μg/ml) for both products. The test products were dissolved directly in the culture medium.
At the end of the incubation period, the hyaluronic acid contained in the culture media was quantified using a sensitive and specific ELISA kit.
At the end of the incubation period, the proteins contained in the cellular lysates were quantified by Bradford's spectrocolorimetric method.
The results are given in the form of ng of hyaluronic acid per μg of total proteins of the cell lawn (mean±standard deviation, SD). The statistical significance of the differences observed between the “Control” and “Reference Product” conditions was evaluated by a Student test (Student t-test). The statistical significance of the differences observed between the “Control” and “Test Products” conditions was evaluated product by product, by a one-way analysis of variance (One Way ANOVA or One Way Anova on Ranks+), followed, when necessary, by a Holm-Sidak or Dunn's test (*: p<0.05).

[2] = system: normal adult human dermal fibroblasts; assay: Neosynthesis of elastin in normal adult human dermal fibroblasts cultured in monolayers (spectrocolorimetric method on culture media); assay type: cell-based; conditions: incubation 96 hours; for increase in the neosynthesis of elastin: versus control
Protocol: as §1, with “The fibroblasts are isolated by” for “The fibroblasts were isolated by”, “collagenase and then cultivated” for “collagenase and were then cultured”, “and then cultivated in DMEM” for “were then cultured in DMEM”
The reference activator used is ascorbic acid at a concentration of 100 μg/ml.
as §2, with “96” for “24”, “under” for “under a”, “(10;” for “(10,”
At the end of the incubation time, the elastin contained in the culture media was quantified by a spectrocolorimetric method.
At the end of the incubation time, the proteins contained in the cellular lysates were quantified by Bradford's spectrocolorimetric method.
The results are given in the form of ng of elastin per μg of total proteins of the cell lawn (mean±standard deviation, SD). The statistical significance of the differences observed between the “Control” and “Reference Product” conditions was evaluated by a Student test (Student t-test). The statistical significance of the differences observed between the “Control” and “Test Products” conditions was evaluated product by product, by a one-way analysis of variance (One Way ANOVA or One Way Anova on Ranks+), followed, when necessary, by a Holm-Sidak or Dunn's test (*: p<0.05).

Molecule | production of hyaluronic acid, % control ([1]; 10 μg/ml) [% control] | production of hyaluronic acid, mean value ([1]; 10 μg/ml) | production of hyaluronic acid, % control ([1]; 100 μg/ml) [% control] | production of hyaluronic acid, mean value ([1]; 100 μg/ml) | increase in the neosynthesis of hyaluronic acid ([1]; 100 μg/ml, versus control) [%] | production of hyaluronic acid, % control ([1]; 1000 μg/ml) [% control] | production of hyaluronic acid, mean value ([1]; 1000 μg/ml) | increase in the neosynthesis of hyaluronic acid ([1]; 1000 μg/ml, versus control) [%] | production of elastin, % control ([2]; 10 μg/ml) [% control] | production of elastin, mean value ([2]; 10 μg/ml) | production of elastin, % control ([2]; 100 μg/ml) [% control] | production of elastin, mean value ([2]; 100 μg/ml) | increase in the neosynthesis of elastin ([2]; 100 μg/ml) [%] | production of elastin, % control ([2]; 1000 μg/ml) [% control] | production of elastin, mean value ([2]; 1000 μg/ml) | increase in the neosynthesis of elastin ([2]; 1000 μg/ml) [%] | also measured
O=C(O)C(=O)C(O)C(O)C(O)CO (stereo not shown) [2KO, calcium salt of 2-keto-(D)-gluconic acid] | 101.2 | 18.5 ng of hyaluronic acid per μg of total proteins | 136.3 | 25.0* ng of hyaluronic acid per μg of total proteins | 36.3 | 192.7 | 35.3* ng of hyaluronic acid per μg of total proteins | 92.7 | 139.7 | 12.6* ng of elastin per μg of total proteins | 144.6 | 13.1* ng of elastin per μg of total proteins | 44.6 | 135.8 | 12.3* ng of elastin per μg of total proteins | 35.8 | increase in the neosynthesis of elastin ([2]; 10 μg/ml): 39.7%
O=C([O-])C(O)C(O)C(O)C(=O)CO.[K+] (stereo not shown) [5KO, potassium salt of 5-keto-(D)-gluconic acid] | 123.3 | 22.6* ng of hyaluronic acid per μg of total proteins | 144.9 | 26.6* ng of hyaluronic acid per μg of total proteins | 44.9 | 144.0 | 26.4* ng of hyaluronic acid per μg of total proteins | 44.0 | 104.8 | 9.5 ng of elastin per μg of total proteins | 118.9 | 10.7 ng of elastin per μg of total proteins | 18.9 | 184.4 | 16.7* ng of elastin per μg of total proteins | 84.4 | increase in the neosynthesis of hyaluronic acid ([1]; 10 μg/ml, versus control): 23.3%
O=C1O[C@H]([C@@H](O)CO)C(O)=C1O [Ascorbic acid, ascorbic acid, reference compound] | – | – | – | – | – | – | – | – | – | – | 140.3 | 12.7*** ng of elastin per μg of total proteins | 40.3 | – | – | – | –
TGF-β: reference activator, transforming growth factor β (TGF-β), used at 10 ng/ml [reference compound] | – | – | – | – | – | – | – | – | – | – | – | – | – | – | – | – | production of hyaluronic acid, % control ([1]; 10 ng/ml): 226.3 % control; production of hyaluronic acid, mean value ([1]; 10 ng/ml): 41.5*** ng of hyaluronic acid per μg of total proteins; increase in fibroblast production of hyaluronic acid ([1]; 10 ng/ml, versus control): 126.3%
